Measured values from patent publication US20250099420A1, “SMALL MOLECULE MODULATORS OF GPR139 COMPLEX” (University of Florida Research Foundation, Incorporated, priority 2022, published 2025).
Where two headings read alike, the source gives them in different places.

Assays:
GPR139 = molecular target: T1, GPR139 (Homo sapiens, UniProt Q6DWJ6); assay: GPR139 Agonist titration / agonist counterscreen assay (calcium detection, HEK-GPR139 cells); format: cell-based; parameters: expressed in transfected cells; host or cells: HEK Aequorin cells, Maxcyte transient transfection; details: GPR139 Agonist Activity; for Averaged Max % Response (±St. Dev.): activity relative to known control; for EC50: read-out: EC50
T1 sequence (Q6DWJ6 1-353): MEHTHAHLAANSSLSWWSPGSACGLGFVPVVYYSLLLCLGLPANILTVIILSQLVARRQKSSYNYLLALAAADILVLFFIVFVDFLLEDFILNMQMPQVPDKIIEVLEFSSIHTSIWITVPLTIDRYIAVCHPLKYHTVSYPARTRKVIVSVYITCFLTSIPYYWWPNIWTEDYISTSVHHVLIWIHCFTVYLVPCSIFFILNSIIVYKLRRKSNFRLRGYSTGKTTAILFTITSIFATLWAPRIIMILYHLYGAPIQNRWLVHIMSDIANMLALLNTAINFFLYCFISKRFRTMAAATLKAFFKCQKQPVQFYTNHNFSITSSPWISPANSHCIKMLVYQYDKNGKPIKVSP
Protocol: GPR activity was assessed using a calcium detection assay. […] Negative control samples were treated with DMSO. […] Intracellular calcium was measured using Calcium 5.

parental HEK cells = assay: HEK parental Agonist Counterscreen Assay (non-transfected cells); format: cell-based; details: for Averaged Max % Response (±St. Dev.): activity relative to known control
Text: The high control for the agonist counterscreen was Forskolin not acetylcholine.

[1] = values printed in E-notation without unit
[2] = HEK Agonist Activity, parental non-transfected HEK cells
[3] = Homo sapiens, HEK293, HEK Agonist Activity section of Table 4 (parental HEK counterscreen)
[4] = HEK Agonist Activity section of Table 4 (parental HEK counterscreen)

Compound	Averaged Max % Response (±St. Dev.) (GPR139)	Lipophilic Efficiency (logD) (GPR139; based on logD)	Lipophilic Efficiency (logP) (GPR139; based on logP)	Hill Slope (GPR139; fitted dose-response curve)	Efficiency Ligand (GPR139; ligand efficiency)	EC50 (GPR139; [1])	Lipophilic Efficiency (logD) (parental HEK cells; HEK Agonist Activity)	Lipophilic Efficiency (logP) (parental HEK cells; HEK Agonist Activity)	Averaged Max % Response (±St. Dev.) (parental HEK cells; HEK Agonist Activity)	Lipophilic Efficiency (logD) (parental HEK cells; HEK Agonist Activity section)	Lipophilic Efficiency (logP) (parental HEK cells; HEK Agonist Activity section)	Averaged Max % Response (±St. Dev.) (parental HEK cells; HEK Agonist Activity section)	EC50 (parental HEK cells; [3])	other results
CC(C)CN1CCNC(=O)C1CC(=O)NCCCn1ccc2ccccc21 (stereo not drawn) [SR-01000176150]	110.06 ± 19.04%	6.35	6.03	0.64	0.40	19.2 nM	3.48	3.17	−3.65 ± 2.66%					EC50 (parental HEK cells; [2]): > 14100 nM
COc1ccccc1CN1CCNC(=O)C1CC(=O)NCCCN1CCc2ccccc21 (stereo not drawn) [SR-01000176838]	83.30 ± 1.40%									3.04	3.02	−8.12 ± 1.57%	> 14100 nM	Efficiency Ligand (GPR139): 0.27; Hill Slope (GPR139): 0.77; Lipophilic Efficiency (logD) (GPR139): 4.34; Lipophilic Efficiency (logP) (GPR139): 4.32; EC50 (GPR139; HEK-GPR139 cells): 697 nM
CC(C)(C)CN1CCNC(=O)C1CC(=O)NCCc1cnn(-c2ccccc2)c1 (stereo not drawn) [SR-01000177515]	91.26 ± 4.77%	5.92	5.67	0.48	0.37	22.6 nM	3.12	2.87	24.98 ± 4.71%					EC50 (parental HEK cells; [2]): > 14100 nM
O=C(NCC1Cc2cccc(-c3ccccn3)c2O1)c1ccc(-n2cccn2)cc1 (stereo not drawn) [SR-01000183606]	89.43 ± 6.88%	3.97	3.96	0.82	0.36	22 nM	1.16	1.16	−9.57 ± 3.95%					EC50 (parental HEK cells; [2]): > 14100 nM
CCOC(=O)C1CCN(C(=O)C2CC(Cc3cccc4ccccc34)=NO2)CC1 (stereo not drawn) [SR-01000185621]	81.20 ± 9.68%									1.69	1.69	−9.62 ± 7.28%	> 14100 nM	Efficiency Ligand (GPR139): 0.28; Hill Slope (GPR139): 0.84; Lipophilic Efficiency (logD) (GPR139): 2.73; Lipophilic Efficiency (logP) (GPR139): 2.73; EC50 (GPR139; HEK-GPR139 cells): 1300 nM
O=C(C1CC(Cc2cccc3ccccc23)=NO1)N1CCC(C(O)Cc2ccccc2)CC1 (stereo not drawn) [SR-01000185712]	110.27 ± 5.24%	2.48	2.48	0.46	0.29	122 nM				0.41	0.41	9.02 ± 5.86%		EC50 (parental HEK cells; [4]): > 14100 nM
Cc1nc(CNC(=O)CCC2(Cc3cccc4ccccc34)CCC(=O)N2)cs1 (stereo not drawn) [SR-01000187393]	99.15 ± 6.04%	4.29	4.29	0.44	0.32	196 nM				2.44	2.44	6.35 ± 6.79%	> 14100 nM	
O=C(NCc1csc(-c2cccs2)n1)C1CC(Cc2ccc3c(c2)OCO3)=NO1 (stereo not drawn) [SR-01000187428]	99.03 ± 14.80%	3.43	3.43	1.55	0.32	201 nM				1.59	1.59	6.44 ± 5.26%	> 14100 nM	
O=C(NC1CC1)C1CC(Cc2cccc3ccccc23)=NO1 (stereo not drawn) [SR-01000188699]	112.57 ± 11.99%	4.37	4.37	1.05	0.46	63.8 nM				2.02	2.02	4.63 ± 6.30%	> 14100 nM	
C=CCC(O)(CC=C)C(C)NC(=O)CCC1(Cc2ccc3ccccc3c2)CCC(=O)N1 (stereo not drawn) [SR-01000190122]	134.89 ± 17.50%	3.22	3.22	0.52	0.30	161 nM				1.27	1.27	0.66 ± 6.28%		EC50 (parental HEK cells; [4]): > 14100 nM
CN(CCC(=O)NCC1Cc2cccc(-c3ccccn3)c2O1)C1CCS(=O)(=O)C1 (stereo not drawn) [SR-01000193031]	95.01 ± 4.20%									4.36	4.19	25.60 ± 3.67%	> 14100 nM	Efficiency Ligand (GPR139): 0.30; Hill Slope (GPR139): 0.62; Lipophilic Efficiency (logD) (GPR139): 5.90; Lipophilic Efficiency (logP) (GPR139): 5.73; EC50 (GPR139; HEK-GPR139 cells): 406 nM
COC(=O)C(CCSC)NC(=O)C1CC(Cc2ccc3c(c2)OCO3)=NO1 (stereo not drawn) [SR-01000193756]	75.38 ± 12.05%									3.01	3.01	−12.55 ± 2.76%		Efficiency Ligand (GPR139): 0.30; Hill Slope (GPR139): 0.69; Lipophilic Efficiency (logD) (GPR139): 4.01; Lipophilic Efficiency (logP) (GPR139): 4.01; EC50 (GPR139; HEK-GPR139 cells): 1400 nM; EC50 (parental HEK cells; [4]): > 14100 nM
CC(NC(=O)Cn1cc(NC(=O)c2ccccc2F)cn1)c1ccccc1Cl (stereo not drawn) [SR-01000194602]	94.95 ± 1.55%	4.44	4.44	0.71	0.39	19.1 nM	1.58	1.58	4.93 ± 4.93%					EC50 (parental HEK cells; [2]): > 14100 nM
O=C(c1ccccc1)C1CCCCC1S(=O)(=O)O (stereo not drawn) [SR-01000197834]	95.96 ± 5.70%	6.98	4.61	1.09	0.54	131 nM				4.95	2.58	18.65 ± 10.85%	> 14100 nM	
O=C(NNC(=O)C1CC1c1ccccc1)Nc1cccc(Cl)c1 (stereo not drawn) [SR-01000202338]	79.48 ± 15.63%	4.84	4.84	1.63	0.48	11.6 nM	1.76	1.76	4.74 ± 3.91%					EC50 (parental HEK cells; Homo sapiens, HEK293, HEK Agonist Activity, parental non-transfected HEK cells): > 14100 nM
